Experimental findings from ChEMBL document CHEMBL1287753, “Synthesis of all-cis 2,5-imino-2,5-dideoxy-fucitol and its evaluation as a potent fucosidase and galactosidase inhibitor” (Bioorg Med Chem Lett, 2010) are described below.

Bounds are passed on as bounds.

Assay [1] in a line: Inhibition of alpha-fucosidase.
Assay [2] is described as follows: Inhibition of alpha-glucosidase.
The nature of assay [3]: Inhibition of beta-glucosidase.
The nature of assay [4]: Inhibition of alpha-mannosidase.
Assay [5] can be described thus: Inhibition of alpha-galactosidase.
Assay [6] is described as follows: Inhibition of beta-mannosidase.
A short description of assay [7]: Inhibition of beta-galactosidase.

For `C[C@@H]1N[C@H](CO)[C@H](O)[C@@H]1O`, in assay [1] (read-out: Ki), the Ki (commonly a dissociation constant, usually derived from enzyme kinetics or from competition with a known ligand) was 0.0049 µM.
Take `C[C@H]1N[C@H](CO)[C@@H](O)[C@H]1O`: the inhibitory constant (Ki) result in assay [2] was “Not Active”; in assay [4], “Not Active”; in assay [1] (read-out: Ki), 1000 µM. The results for the IC50 in assay [3] and in assay [5] were 100 µM and 2000 µM, respectively.
As to `C[C@@H]1N[C@@H](CO)[C@H](O)[C@@H]1O`, the Ki in assay [1] (read-out: Ki) was 0.08 µM.
For `C[C@@H]1N[C@@H](CCO)[C@H](O)[C@@H]1O`, the IC50 (in general, the concentration needed to halve the response being measured) in assay [2] is over 100 µM; in assay [3] it was over 1000 µM; in assay [4], over 1000 µM; in assay [6], over 1000 µM; in assay [5], over 1000 µM; in assay [7], over 1000 µM. For the same molecule, the Ki in assay [1] (read-out: Ki) worked out at 0.008 µM.
`C[C@H]1N[C@H](CO)[C@H](O)[C@@H]1O`: the Ki entry in assay [2] is “Not Active”; in assay [4] (read-out: Ki) it was 53 µM; in assay [5] it was 5 µM; in assay [1] (read-out: Ki), 9 µM. In addition, in assay [3], half-maximal inhibition (IC50) was put at 1200 µM.
Turning to `OC[C@H]1NC[C@@H](O)[C@H]1O`, the Ki result in assay [2] and in assay [1] was “Not Active” in each case. The IC50 in assay [3] turned out to be 350 µM; in assay [4] it was 14 µM; in assay [5] it was 0.2 µM; in assay [7], 140 µM.
With `C[C@@H]1NC[C@H](O)[C@@H]1O`, the Ki in assay [1] (read-out: Ki) amounted to 0.05 µM.
For the molecule `C[C@H]1N[C@@H](CO)[C@@H](O)[C@H]1O` (racemic), the IC50 in assay [2] is over 100 µM; in assay [3], over 1 µM; in assay [4] it was over 1000 µM; in assay [6] it was over 1000 µM. The Ki in assay [5] stood at 3 µM; in assay [7], 53 µM; in assay [1] (read-out: Ki), 0.015 µM.
